Ends that are not written are not given here.
Legend:
CDK2/Cyclin complex = molecular target: T1, CDK2/Cyclin complex (Homo sapiens, UniProt P24941); test: Kinase assay of immunoprecipitated Cyclin E samples with Histone H1; assay type: biochemical; conditions: 10 µM peptide, Histone H1 substrate
T1 construct: endogenous in cells; host or cells: C81 (HTLV-1-infected T-cell line), size-exclusion fractions 28-31 of whole cell lysate
Protocol: (§1) B) Immunoprecipitated Cyclin E samples in the presence of peptides were assessed for kinase activity. Histone H1 (1 µg/reaction) was added to each reaction tube along with 2 µl of (γ-32P) ATP (3000 Ci/mmol). Reactions were incubated at 37°C for 30 min and stopped by the addition Laemmli buffer. The samples were separated on a 4–20% Tris–Glycine gel. Samples were ran on a gel, dried, and exposed to a PhosphorImager cassette and analyzed using Molecular Dynamic’s ImageQuant Software.
The levels of phosphorylation of H1 are shown in the presence of the six designed peptides.
Immunoprecipitated samples were assessed for kinase activity. After the final TNE50+0.1% NP-40 wash, beads were washed with kinase buffer (50 mM HEPES, 10 mM MgCl2, 5 mM MnCl2, 1 mM DTT, 50 mM NaF, 0.2 mM Na3VO4 and one complete tablet of protease cocktail inhibitor/50 ml buffer) to equilibrate the reaction. Histone H1 (1 µg) was added to each reaction tube along with the γ-32P ATP (2 µl at 3000 Ci/mmol). Reactions were incubated at 37°C for 30 min and stopped by the addition of 15 µl Laemmli buffer. The samples were separated by reducing SDS-PAGE on a 4–20% Tris–Glycine gel. Gels were stained with Coomassie blue, destained, and then dried for 2 hours. Following drying, the gels were exposed to a PhosphorImager cassette and analyzed utilizing Molecular Dynamic’s ImageQuant Software.

CDK2 = CDK2 (Homo sapiens, UniProt P24941); test: Surface Plasmon Resonance (SPR) peptide binding assay; conditions: for Ka1 / Ka2 / Kd1 / Kd2: two-state model
Protocol: Data were fitted globally by using the standard two state models provided by Biacore T200 Software v2.0.
Single-cycle kinetics experiments were performed with a T200 apparatus. The experiments were done on S-CM5 sensor chips coated with 6000 RU of CDK2. A flow cell left blank was used for double-referencing of the sensorgrams. Binding experiments were performed in standard PBS-P buffer with 60 µM ATP as running buffer (10 mM NaH2PO4/Na2HPO4, 150 mM NaCl, 60 µM ATP and 0.05% surfactant P20, pH 7.4) at 25°C with a flow rate of 30 µl/min. The peptide samples were prepared in the running buffer, and were injected.
Single-cycle kinetics assay were performed using the standard SCK method implemented by the T200 Control Software. In single-cycle analysis, the analyte is injected with increasing concentrations in a single cycle. The surface is not regenerated between injections. A blank injection of buffer only was subtracted from each curve, and reference sensorgrams were subtracted from experimental sensorgrams to yield curves representing specific binding. Data were fitted globally by using the standard two-state model provided by T200 Software v2.0. The data shown are representative of at least three independent experiments.

CDK2/Cyclin E complex = molecular target: T2, CDK2/Cyclin E complex (Homo sapiens, UniProt P24941); test: Cyclin E immunoprecipitation and Western blot for CDK2 (complex dissociation); assay type: biochemical; conditions: 10 µM peptide, C81 fractionated cell extracts
T2 construct: endogenous in cells; host or cells: C81 (HTLV-1-infected T-cell line), size-exclusion fractions 28-31 of whole cell lysate
Protocol: This is discussed below by the kinase activity experiment.
as §1
C81 whole cell lysate (5 mg) was fractionated on a Superose 6 HR 10/30 column (Amersham Biosciences, Piscataway, NJ) in Buffer D (20 mM HEPES (pH 7.9), 0.05 M KCl, 0.2 mM EDTA, 0.5 mM PMSF, 0.05 DTT, and 20% Glycerol). Flow-through was collected at 0.5 ml for 50 fractions.
The pooled C81 extracts (250 µg each) were combined with 10 µM of each respective peptide. Cyclin E antibody (Santa Cruz, sc-198) was added to each reaction tube (10 µl, 2 µg), the reaction mixture was brought up to 500 µl with TNE50+0.1% NP-40 (100 mM Tris, pH 8.0; 50 mM NaCl; 1 mM EDTA, 0.1% Nonidet P-40) and was allowed to incubate while rotating overnight at 4°C. α-IgG was added to extract as a negative control, and an IP was performed in the absence of competing peptide, acting as a positive control. […]

Ka1 (CDK2; with 60 µM ATP) | Ka1 (CDK2; without ATP) | Kd (CDK2; without ATP) | Compound | kinase activity (phosphorylation of H1) (CDK2/Cyclin complex) | mechanism of binding (SPR response curve) (CDK2) | Ka2 (CDK2; with 60 µM ATP) | Kd1 (CDK2; with 60 µM ATP) | Kd2 (CDK2; with 60 µM ATP) | Ka2 (CDK2; without ATP) | Kd1 (CDK2; without ATP) | Kd2 (CDK2; without ATP) | dissociation of CDK2 from the CDK2/Cyclin complex (CDK2/Cyclin E complex)
612.9 ± 13.0 M⁻¹ s⁻¹ | 434.1 ± 6.6 M⁻¹ s⁻¹ |  | CC(C)C[C@H](NC(=O)[C@H](C)NC(=O)[C@H](C)NC(=O)[C@@H](N)CC(=O)O)C(=O)N[C@H](C(=O)O)[C@@H](C)O [DAALT, NH2-D-A-A-L-T-OH] | clear loss of kinase activity | fast binding and fast dissociation | 34.6±1.0 E-3 1/Ms | 101.2±4.3 E-3 1/s | 10.1±0.1 E-3 1/s | 14.1±0.4 E-4 1/Ms | 23.2±0.4 E-3 1/s | 1.3±0.6 E-5 1/s | dissociation of CDK2 from the CDK2/Cyclin complex
 |  |  | CC(C)C[C@H](NC(=O)[C@H](C)NC(=O)[C@H](C)NC(=O)[C@@H](N)Cc1ccc(O)cc1)C(=O)N[C@@H](CCC(N)=O)C(=O)O [YAALQ, NH2-Y-A-A-L-Q-OH] | clear loss of kinase activity | fast binding and fast dissociation | 12.3±0.3 E-3 1/Ms | 53.9±1.4 E-3 1/s | 1.6±0.1 E-3 1/s | 9.0±0.3 E-3 1/Ms | 84.0±2.7 E-3 1/s | 2.2±0.1 E-3 1/s | weak complex disassociation
 |  | 8 µM | LAALS [LAALS, reference compound] |  |  |  |  |  |  |  |  | 

— publication PMC4188581 (PLoS ONE, 2014)
